Assay results from US20230086007A1, “USE OF DENATONIUM BENZOATE AS A SEED TREATMENT FOR CROPS AS BIRD AND/OR INSECT REPELLENT” (KWS SAAT SE & Co. KGaA, priority 2020, published 2023).

Test system: corn seeds
Assay: Phytotoxicity: cold test germination rate (CT) of treated corn seeds
Settings: for ΔCT: vs no Bitrex
Protocol: In order to evaluate the phytotoxicity of different corn seed treatments, safety tests were conducted. Germination rates of corn seeds treated with various concentrations of denatonium benzoate (Bitrex®) [in g per unit, where 1 unit is 50.000 seeds] were counted after five days at 25° C. Cold test germination rates (CT) were counted after 7 days at 10° C. and 5 days at 25° C. The treatments were compared to untreated seeds.
KF=germination rates counted after 5 days at 25° C. and CT=cold test germination rates counted after 7 days at 10° C. and 5 days at 25° C.

[1] = corn Amavit, chemical no, Bitrex 0.2 g/u
[2] = corn Amavit, chemical no, Bitrex 0.5 g/u
[3] = corn Amavit, chemical no, Bitrex 1.0 g/u
[4] = corn Amavit, chemical no, Bitrex 2.0 g/u
[5] = corn Amavit, chemical no, Bitrex 5.0 g/u
[6] = corn Amavit, with MaximXL, Bitrex 0.2 g/u
[7] = corn Amavit, with MaximXL, Bitrex 0.5 g/u
[8] = corn Amavit, with MaximXL, Bitrex 1.0 g/u
[9] = corn Amavit, with MaximXL, Bitrex 2.0 g/u
[10] = corn Amavit, with MaximXL, Bitrex 5.0 g/u
[11] = corn Amavit, with RedigoM, Bitrex 0.2 g/u
[12] = corn Amavit, with RedigoM, Bitrex 0.5 g/u
[13] = corn Amavit, with RedigoM, Bitrex 1.0 g/u
[14] = corn Amavit, with RedigoM, Bitrex 2.0 g/u
[15] = corn Amavit, with RedigoM, Bitrex 5.0 g/u
[16] = corn KXB6432, chemical no, Bitrex 0.2 g/u
[17] = corn KXB6432, chemical no, Bitrex 0.5 g/u
[18] = corn KXB6432, chemical no, Bitrex 1.0 g/u
[19] = corn KXB6432, chemical no, Bitrex 2.0 g/u
[20] = corn KXB6432, chemical no, Bitrex 5.0 g/u
[21] = corn KXB6432, with MaximXL, Bitrex 0.2 g/u
[22] = corn KXB6432, with MaximXL, Bitrex 0.5 g/u
[23] = corn KXB6432, with MaximXL, Bitrex 1.0 g/u

**Q.** How did the “CT cold test germination rate, 7 days at 10° C. and 5 days at 25° C.” value (“CT cold test germination rate, 7 days” for short) [1] turn out when `CC[N+](CC)(CC(=O)Nc1c(C)cccc1C)Cc1ccccc1.O=C([O-])c1ccccc1` [Bitrex, N-Benzyl-2-(2,6-dimethylanilino)-N, N-diethyl-2-oxoethan-1-aminium benzoate] was run?
**A.** The value was 91.5%.

**Q.** What about the “CT cold test germination rate, 7 days” value [2] of the same compound?
**A.** Its value is 89.0%.

**Q.** And the “CT cold test germination rate, 7 days” value [3]?
**A.** The value was 95.5%.

**Q.** And the “CT cold test germination rate, 7 days” value [4]?
**A.** The value was 93.0%.

**Q.** What about the “CT cold test germination rate, 7 days” value [5] of the same compound?
**A.** The value was 96.5%.

**Q.** What about the “CT cold test germination rate, 7 days” value [6] of the same compound?
**A.** The value was 98.0%.

**Q.** And the “CT cold test germination rate, 7 days” value [7]?
**A.** The value was 98.0%.

**Q.** What about the “CT cold test germination rate, 7 days” value [8] of the same compound?
**A.** The value was 97.0%.

**Q.** And the “CT cold test germination rate, 7 days” value [9]?
**A.** The value was 99.0%.

**Q.** What about the “CT cold test germination rate, 7 days” value [10] of the same compound?
**A.** The value was 99.0%.

**Q.** And the “CT cold test germination rate, 7 days” value [11]?
**A.** Its value is 97.5%.

**Q.** And the “CT cold test germination rate, 7 days” value [12]?
**A.** The value was 99.0%.

**Q.** What about the “CT cold test germination rate, 7 days” value [13] of the same compound?
**A.** The value was 99.0%.

**Q.** What about the “CT cold test germination rate, 7 days” value [14] of the same compound?
**A.** The value was 95.5%.

**Q.** What about the “CT cold test germination rate, 7 days” value [15] of the same compound?
**A.** Its value is 96.5%.

**Q.** What about the “CT cold test germination rate, 7 days” value [16] of the same compound?
**A.** Its value is 98.0%.

**Q.** And the “CT cold test germination rate, 7 days” value [17]?
**A.** Its value is 97.5%.

**Q.** And the “CT cold test germination rate, 7 days” value [18]?
**A.** The value was 97.0%.

**Q.** What about the “CT cold test germination rate, 7 days” value [19] of the same compound?
**A.** Its value is 90.5%.

**Q.** What about the “CT cold test germination rate, 7 days” value [20] of the same compound?
**A.** Its value is 90.5%.

**Q.** What about the “CT cold test germination rate, 7 days” value [21] of the same compound?
**A.** Its value is 100.0%.

**Q.** What about the “CT cold test germination rate, 7 days” value [22] of the same compound?
**A.** Its value is 99.5%.

**Q.** What about the “CT cold test germination rate, 7 days” value [23] of the same compound?
**A.** The value was 98.0%.

**Q.** And the “CT cold test germination rate, 7 days” value (corn KXB6432, with MaximXL, Bitrex 2.0 g/u)?
**A.** The value was 96.5%.

**Q.** And the “CT cold test germination rate, 7 days” value (corn KXB6432, with MaximXL, Bitrex 5.0 g/u)?
**A.** The value was 99.0%.

**Q.** What about the “CT cold test germination rate, 7 days” value (corn KXB6432, with RedigoM, Bitrex 0.2 g/u) of the same compound?
**A.** The value was 97.0%.

**Q.** What about the “CT cold test germination rate, 7 days” value (corn KXB6432, with RedigoM, Bitrex 0.5 g/u) of the same compound?
**A.** Its value is 96.5%.

**Q.** What about the “CT cold test germination rate, 7 days” value (corn KXB6432, with RedigoM, Bitrex 1.0 g/u) of the same compound?
**A.** The value was 99.5%.

**Q.** What about the “CT cold test germination rate, 7 days” value (corn KXB6432, with RedigoM, Bitrex 2.0 g/u) of the same compound?
**A.** Its value is 98.5%.

**Q.** What about the “CT cold test germination rate, 7 days” value (corn KXB6432, with RedigoM, Bitrex 5.0 g/u) of the same compound?
**A.** The value was 96.5%.

**Q.** And the ΔCT [1]?
**A.** The ΔCT was 6.0%.

**Q.** And the ΔCT [2]?
**A.** Its ΔCT is 3.5%.

**Q.** And the ΔCT [3]?
**A.** The ΔCT was 10.0%.

**Q.** And the ΔCT [4]?
**A.** Its ΔCT is 7.5%.

**Q.** And the ΔCT [5]?
**A.** Its ΔCT is 11.0%.

**Q.** What about the ΔCT [6] of the same compound?
**A.** Its ΔCT is −2.0%.

**Q.** And the ΔCT [7]?
**A.** The ΔCT was −2.0%.

**Q.** What about the ΔCT [8] of the same compound?
**A.** The ΔCT was −3.0%.

**Q.** And the ΔCT [9]?
**A.** Its ΔCT is −1.0%.

**Q.** What about the ΔCT [10] of the same compound?
**A.** The ΔCT was −1.0%.

**Q.** And the ΔCT [11]?
**A.** The ΔCT was 0.5%.

**Q.** And the ΔCT [12]?
**A.** The ΔCT was 2.0%.

**Q.** What about the ΔCT [13] of the same compound?
**A.** Its ΔCT is 2.0%.

**Q.** And the ΔCT [14]?
**A.** Its ΔCT is −1.5%.

**Q.** And the ΔCT [15]?
**A.** The ΔCT was −0.5%.

**Q.** And the ΔCT [16]?
**A.** Its ΔCT is 5.5%.

**Q.** What about the ΔCT [17] of the same compound?
**A.** The ΔCT was 5.0%.

**Q.** What about the ΔCT [18] of the same compound?
**A.** The ΔCT was 4.5%.

**Q.** What about the ΔCT [19] of the same compound?
**A.** Its ΔCT is −2.0%.

**Q.** And the ΔCT [20]?
**A.** Its ΔCT is −2.0%.

**Q.** And the ΔCT [21]?
**A.** The ΔCT was 1.0%.

**Q.** What about the ΔCT [22] of the same compound?
**A.** Its ΔCT is 0.5%.

**Q.** And the ΔCT [23]?
**A.** Its ΔCT is −1.0%.
